Assay results reported in ChEMBL document CHEMBL5131491, “N6-modification of 7-Deazapurine nucleoside analogues as Anti-Trypanosoma cruzi and anti-Leishmania agents: Structure-activity relationship exploration and In vivo evaluation” (Eur J Med Chem, 2022).
Active and inactive are the calls of the source. No cut-off for these calls is given here.

Legend:
[1] = Toxicity in early curative hamster model assessed as severe toxicity at 50 mg/kg, po qd for 4 days measured on day 5; type: organism-based, Cricetulus griseus; conditions: chinese hamster, in vivo, 120 h, time 5 day
[2] = Selectivity index, ratio of CC50 for Swiss mouse peritoneal macrophages to EC50 for antileishmanial activity against intracellular Leishmania infantum MHOM/MA(BE)/67 amastigotes infected in Swiss mouse peritoneal macrophages; type: toxicity, cell-based; conditions: read-out: Selectivity Index
[3] = Acute toxicity in acute CD Swiss Webster mouse model infected with Trypanosoma cruzi Y strain assessed as survival rate at 25 mg/kg, po administered for 5 consecutive days measured after 55 days post treatment (reference value: 100 %); type: organism-based; conditions: in vivo, time 55 day
[4] = Selectivity index, ratio of CC50 for human MRC-5 cells to EC50 for antitrypanosomal activity against intracellular Trypanosoma cruzi Tulahuen amastigotes expressing CL2 beta-galactosidase in human MRC5 cells; type: toxicity, cell-based; conditions: read-out: Selectivity Index
[5] = Metabolic stability in mouse liver microsomes S9 fraction assessed as parent compound remaining at 5 uM incubated for 60 mins in presence of NADPH by liquid chromatography (reference value: 100 %); type: ADME, Microsome S9 fraction; conditions: read-out: Stability
Trypanosoma cruzi [6] = experiment: Antitrypanosomal activity against intracellular Trypanosoma cruzi Tulahuen amastigotes expressing CL2 beta-galactosidase in human MRC5 cells assessed as parasite growth inhibition using chlorophenol red beta-D-galactopyranoside as substrate treated for 7 days by spectrophotometry; type: functional, organism-based; conditions: MRC5, 168 h
Trypanosoma cruzi [7] = experiment: Antitrypanosomal activity against Trypanosoma cruzi Y strain infected in acute CD Swiss Webster mouse model assessed as reduction in parasitemia at 12.5 to 25 mg/kg, po qd administered for 5 consecutive days by light microscopy; type: functional, organism-based; conditions: dose 12.5-25 mg/kg, time 5.0 day
[8] = Metabolic stability in hamster liver microsomes S9 fraction assessed as parent compound remaining at 5 uM incubated for 30 min in presence of NADPH by liquid chromatography (reference value: 100 %); type: ADME, Cricetulus griseus, Microsome S9 fraction; conditions: chinese hamster, read-out: Stability
[9] = Metabolic stability in hamster liver microsomes S9 fraction assessed as parent compound remaining at 5 uM incubated for 30 min in presence of UGT by liquid chromatography (reference value: 100 %); type: ADME, Cricetulus griseus, Microsome S9 fraction; conditions: chinese hamster, read-out: Stability
[10] = Metabolic stability in human liver microsomes S9 fraction assessed as parent compound remaining at 5 uM incubated for 15 min in presence of NADPH by liquid chromatography (reference value: 100 %); type: ADME, Microsome S9 fraction; conditions: read-out: Stability
[11] = Metabolic stability in hamster liver microsomes S9 fraction assessed as parent compound remaining at 5 uM incubated for 15 min in presence of NADPH by liquid chromatography (reference value: 100 %); type: ADME, Cricetulus griseus, Microsome S9 fraction; conditions: chinese hamster, read-out: Stability
Trypanosoma cruzi [12] = experiment: Antitrypanosomal activity against Trypanosoma cruzi Y strain infected in acute CD Swiss Webster mouse model assessed as reduction in parasitemia at 12.5 mg/kg, po qd for 5 consecutive days by light microscopy relative to control; type: functional; design: scale not given: the % may be the effect or the level left; conditions: time 5 day
Trypanosoma cruzi [13] = experiment: Antitrypanosomal activity against Trypanosoma cruzi Y strain infected in acute CD Swiss Webster mouse model assessed as reduction in parasitemia at 25 mg/kg, po qd for 5 consecutive days by light microscopy relative to control; type: functional; design: scale not given: the % may be the effect or the level left; conditions: time 5 day
[14] = Metabolic stability in mouse liver microsomes S9 fraction assessed as parent compound remaining at 5 uM incubated for 30 min in presence of UGT by liquid chromatography (reference value: 100 %); type: ADME, Microsome S9 fraction; conditions: read-out: Stability
[15] = Metabolic stability in mouse liver microsomes S9 fraction assessed as parent compound remaining at 5 uM incubated for 60 min in presence of UGT by liquid chromatography (reference value: 100 %); type: ADME, Microsome S9 fraction; conditions: read-out: Stability
[16] = Metabolic stability in human liver microsomes S9 fraction assessed as parent compound remaining at 5 uM incubated for 30 min in presence of NADPH by liquid chromatography (reference value: 100 %); type: ADME, Microsome S9 fraction; conditions: read-out: Stability
[17] = Metabolic stability in human liver microsomes S9 fraction assessed as parent compound remaining at 5 uM incubated for 15 min in presence of UGT by liquid chromatography (reference value: 100 %); type: ADME, Microsome S9 fraction; conditions: read-out: Stability
[18] = Toxicity in early curative hamster model assessed as clinical symptoms of toxicity at 50 mg/kg, po qd for 4 days; type: organism-based, Cricetulus griseus; conditions: chinese hamster, in vivo, 96 h, time 4 day
[19] = Metabolic stability in human liver microsomes S9 fraction assessed as parent compound remaining at 5 uM incubated for 60 min in presence of NADPH by liquid chromatography (reference value: 100 %); type: ADME, Microsome S9 fraction; conditions: read-out: Stability
Trypanosoma cruzi [20] = experiment: Antitrypanosomal activity against Trypanosoma cruzi Y strain infected in acute CD Swiss Webster mouse model assessed as reduction in parasitemia at 50 mg/kg, po qd for 5 consecutive days by light microscopy relative to control; type: functional; design: scale not given: the % may be the effect or the level left; conditions: time 5 day
[21] = Metabolic stability in hamster liver microsomes S9 fraction assessed as parent compound remaining at 5 uM incubated for 60 min in presence of NADPH by liquid chromatography (reference value: 100 %); type: ADME, Cricetulus griseus, Microsome S9 fraction; conditions: chinese hamster, read-out: Stability
Leishmania infantum [22] = experiment: Antileishmanial activity against extracellular Leishmania infantum […] MIL5C13 promastigotes assessed as reduction in parasite growth incubated for 96 hrs by light microscopy; type: functional, organism-based
[23] = Metabolic stability in mouse liver microsomes S9 fraction assessed as parent compound remaining at 5 uM incubated for 15 min in presence of UGT by liquid chromatography (reference value: 100 %); type: ADME, Microsome S9 fraction; conditions: read-out: Stability
[24] = Metabolic stability in hamster liver microsomes S9 fraction assessed as parent compound remaining at 5 uM incubated for 15 min in presence of UGT by liquid chromatography (reference value: 100 %); type: ADME, Cricetulus griseus, Microsome S9 fraction; conditions: chinese hamster, read-out: Stability
Trypanosoma cruzi [25] = experiment: Antitrypanosomal activity against bloodstream extracellular Trypanosoma cruzi Y strain trypomastigotes assessed as reduction in parasite growth incubated for 96 hrs by light microscope; type: functional, organism-based
[26] = Toxicity in early curative hamster model assessed as weight loss at 50 mg/kg, po qd for 4 days measured on day 2; type: organism-based, Cricetulus griseus; conditions: chinese hamster, in vivo, 96 h, time 4 day
Leishmania infantum [27] = experiment: Antileishmanial activity against extracellular Leishmania infantum […] PMM promastigotes assessed as reduction in parasite growth incubated for 96 hrs by light microscopy; type: functional, organism-based
[28] = Acute toxicity in acute CD Swiss Webster mouse model infected with Trypanosoma cruzi Y strain assessed as maximum tolerated dose administered orally once daily for 5 consecutive days; conditions: in vivo, route po, time 5 day
[29] = Metabolic stability in mouse liver microsomes S9 fraction assessed as parent compound remaining at 5 uM incubated for 30 mins in presence of NADPH by liquid chromatography (reference value: 100 %); type: ADME, Microsome S9 fraction; conditions: read-out: Stability
Leishmania infantum [30] = experiment: Antileishmanial activity against intracellular Leishmania infantum MHOM/MA(BE)/67 amastigotes infected in Swiss mouse peritoneal macrophages assessed as parasite growth inhibition incubated for 5 days by giemsa staining based microscopic analysis; type: functional, organism-based; conditions: MHOM/MA(BE)/67, Macrophage, 120 h
[31] = Acute toxicity in acute CD Swiss Webster mouse model infected with Trypanosoma cruzi Y strain assessed as survival rate at 12.5 mg/kg, po administered for 5 consecutive days measured after 55 days post treatment (reference value: 100 %); type: organism-based; conditions: in vivo, time 55 day
[32] = Metabolic stability in human liver microsomes S9 fraction assessed as parent compound remaining at 5 uM incubated for 60 min in presence of UGT by liquid chromatography (reference value: 100 %); type: ADME, Microsome S9 fraction; conditions: read-out: Stability
[33] = Cytotoxicity against Swiss mouse peritoneal macrophages assessed as reduction in cell viability measured after 5 days by microscopic analysis; type: toxicity, cell-based, Macrophage; conditions: time 5 day
[34] = Metabolic stability in mouse liver microsomes S9 fraction assessed as parent compound remaining at 5 uM incubated for 15 mins in presence of NADPH by liquid chromatography (reference value: 100 %); type: ADME, Microsome S9 fraction; conditions: read-out: Stability
[35] = Cytotoxicity against human MRC5 fibroblast cells assessed as reduction in cell viability measured after 3 days by fluorometry; type: toxicity, cell-based; conditions: time 3 day
Leishmania infantum [36] = experiment: Antileishmanial activity against extracellular Leishmania infantum LEM3323-C14 promastigotes assessed as reduction in parasite growth incubated for 96 hrs by light microscope; type: functional, organism-based; conditions: LEM3323-C14, 96 h
[37] = Metabolic stability in human liver microsomes S9 fraction assessed as parent compound remaining at 5 uM incubated for 30 min in presence of UGT by liquid chromatography (reference value: 100 %); type: ADME, Microsome S9 fraction; conditions: read-out: Stability
[38] = Metabolic stability in hamster liver microsomes S9 fraction assessed as parent compound remaining at 5 uM incubated for 60 min in presence of UGT by liquid chromatography (reference value: 100 %); type: ADME, Cricetulus griseus, Microsome S9 fraction; conditions: chinese hamster, 1 h
[39] = Acute toxicity in acute CD Swiss Webster mouse model infected with Trypanosoma cruzi Y strain assessed as weight loss at 12.5 to 50 mg/kg, po qd administered for 5 consecutive days measured once a week; type: organism-based; conditions: in vivo, 120 h, dose 12.5-50 mg/kg, time 5 day
[40] = Toxicity in acute CD Swiss Webster mouse model infected with Trypanosoma cruzi Y strain assessed as animal survival at 50 mg/kg, po qd for 5 consecutive days measured daily for upto 30 days post-treatment; type: organism-based; conditions: in vivo, 720 h, time < 30 day

SMILES: CNc1ncnc2c1ccn2[C@@H]1O[C@H](CO)[C@@H](O)[C@H]1O
- Activity [1]: Toxic
- selectivity ratio [2]: > 131
- survival at 1320 h [3]: 66.7%
- selectivity ratio [4]: > 142
- remaining at 1 h, 5 µM [5]: 107%
- EC50 (Trypanosoma cruzi [6]): 450 nM
- Activity (Trypanosoma cruzi [7]): Active
- remaining at 0.5 h, 5 µM [8]: 93%
- remaining at 0.5 h, 5 µM [9]: 102%
- remaining at 0.25 h, 5 µM [10]: 108%
- remaining at 0.25 h, 5 µM [11]: 97%
- Activity (Trypanosoma cruzi [12]): 75%
- Activity (Trypanosoma cruzi [13]): 89%
- remaining at 0.5 h, 5 µM [14]: 105%
- remaining at 1 h, 5 µM [15]: 98%
- remaining at 0.5 h, 5 µM [16]: 95%
- remaining at 0.25 h, 5 µM [17]: 99%
- Activity [18]: Toxic
- remaining at 1 h, 5 µM [19]: 105%
- Activity (Trypanosoma cruzi [20]): 96%
- remaining at 1 h, 5 µM [21]: 103%
- EC50 (Leishmania infantum [22]): 2380 nM
- remaining at 0.25 h, 5 µM [23]: 103%
- remaining at 0.25 h, 5 µM [24]: 102%
- EC50 (Trypanosoma cruzi [25]): > 24000 nM
- Activity [26]: Toxic
- EC50 (Leishmania infantum [27]): 2000 nM
- MTD at 120 h [28]: 12.5 mg/kg/day
- remaining at 0.5 h, 5 µM [29]: 96%
- EC50 (Leishmania infantum [30]): 490 nM
- survival at 1320 h [31]: 83.3%
- remaining at 1 h, 5 µM [32]: 104%
- CC50 at 120 h [33]: > 64000 nM
- remaining at 0.25 h, 5 µM [34]: 96%
- CC50 at 72 h [35]: > 64000 nM
- EC50 (Leishmania infantum [36]): 8000 nM
- remaining at 0.5 h, 5 µM [37]: 104%
- Stability [38]: 116%
- Activity [39]: Toxic
- Survival [40]: Toxic
